Where two headings read alike, the source gives them in different places.
Target: T1, mAChR M4 (Homo sapiens, UniProt P08173)
T1 construct: expressed in transfected cells; host or cells: CHO-K1 cells stably transfected with M4 cDNA and chimeric G-protein Gqi5
T1 sequence (P08173 1-479): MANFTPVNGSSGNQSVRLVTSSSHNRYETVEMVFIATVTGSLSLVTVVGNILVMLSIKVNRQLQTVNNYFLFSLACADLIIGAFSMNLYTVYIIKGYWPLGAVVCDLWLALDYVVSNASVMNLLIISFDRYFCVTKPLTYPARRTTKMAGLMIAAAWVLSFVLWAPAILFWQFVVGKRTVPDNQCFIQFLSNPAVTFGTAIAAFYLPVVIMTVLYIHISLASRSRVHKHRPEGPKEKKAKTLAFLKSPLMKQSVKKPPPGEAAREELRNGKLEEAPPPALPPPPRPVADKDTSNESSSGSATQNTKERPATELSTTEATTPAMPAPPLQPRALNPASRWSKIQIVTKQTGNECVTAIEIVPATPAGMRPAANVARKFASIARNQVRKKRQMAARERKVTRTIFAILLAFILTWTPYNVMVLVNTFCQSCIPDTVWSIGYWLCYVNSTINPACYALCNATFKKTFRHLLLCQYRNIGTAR
Assay: mAChR M4 cell-based functional assay (calcium mobilization, potentiation of EC20 acetylcholine response)
Details: for Emax at 30 µM: % ACh maximum at 30 μM

[1] = mAChR M4 cell-based functional assay, >10,000 estimated for low potency compounds without plateau, read-out: EC50

Row | SMILES | Emax at 30 µM [%] | EC50 [1] [nM] | EC50 (EC50 (nM)) [nM]
1 | Cc1nnc2sc(C(=O)NCc3ccc4c(c3)CN(C(C)C)C4=O)c(N)c2c1C [Example B407] | 61 | 220 | –
2 | Cc1nnc2sc(C(=O)NC3CN(C(=O)CCc4ccccc4)C3)c(N)c2c1C [Example B129] | 80 | 110 | –
3 | COc1ccccc1C(=O)N1CC(NC(=O)c2sc3nnc(C)c(C)c3c2N)C1 [Example B397] | 64 | 430 | –
4 | COC1CCN(C(=O)c2sc3nnc(C)c(C)c3c2N)C1 (stereo not shown) [Example B272] | 55 | > 10000 | –
5 | CSc1ccc(CNC(=O)c2sc3nnc(C)c(C)c3c2N)cc1 [Example B26] | 76 | – | 11
6 | Cc1nnc2sc(C(=O)NC3CN(S(=O)(=O)c4ccc(F)cc4F)C3)c(N)c2c1C [Example B146] | 82 | 66 | –
7 | Cc1nnc2sc(C(=O)NCc3ccc(S(=O)(=O)CCO)cc3)c(N)c2c1C [Example B387] | 77 | 68 | –
8 | Cc1nnc2sc(C(=O)NCc3ccn(C)c(=O)c3)c(N)c2c1C [Example B466] | 60 | 1200 | –
9 | COc1ccc(CNC(=O)c2sc3nnc(C)c(C)c3c2N)cn1 [Example B288] | 71 | 150 | –
10 | Cc1nnc2sc(C(=O)NC3CN(C(=O)c4ccc(OC(F)(F)F)cc4)C3)c(N)c2c1C [Example B409] | 65 | 120 | –
11 | Cc1nnc2sc(C(=O)Nc3ccc4cn[nH]c4c3)c(N)c2c1C [Example B67] | 51 | 350 | –
12 | Cc1nnc2sc(C(=O)N3CC(F)(c4ccc(-c5cncnc5)cc4)C3)c(N)c2c1C [Example B326] | 50 | 390 | –
13 | Cc1nnc2sc(C(=O)NC3CN(C(=O)c4cccc(F)c4)C3)c(N)c2c1C [Example B403] | 71 | 110 | –
14 | COc1ccccc1N1CCC(NC(=O)c2sc3nnc(C)c(C)c3c2N)C1 (stereo not shown) [Example B271] | 71 | 3000 | –
15 | Cc1nnc2sc(C(=O)NCc3ccc(-c4cc(O)ccc4Cl)cc3)c(N)c2c1C [Example B500] | 72 | 1800 | –
16 | Cc1nnc2sc(C(=O)NCc3ccc4c(c3)CC(=O)N4)c(N)c2c1C [Example B276] | 67 | 360 | –
17 | Cc1nnc2sc(C(=O)NCc3ccc(S(=O)(=O)C4CC4)cc3)c(N)c2c1C [Example B92] | 53 | – | 23
18 | Cc1nnc2sc(C(=O)NCc3ccc(S(=O)(=O)CCO[Si](c4ccccc4)(c4ccccc4)C(C)(C)C)cc3)c(N)c2c1C [Example B335] | 74 | 890 | –
19 | Cc1nnc2sc(C(=O)NCc3cnccn3)c(N)c2c1C [Example B10] | 82 | > 10000 | –
20 | Cc1nnc2sc(C(=O)N3CC4(C3)CN(S(=O)(=O)c3ccccc3)C4)c(N)c2c1C [Example B394] | 47 | 1100 | –
21 | Cc1nnc2sc(C(=O)N3CCC(NC(=O)Oc4ccccc4)C3)c(N)c2c1C (stereo not shown) [Example B205] | 71 | 570 | –

Row | SMILES | Emax at 30 µM [%] | EC50 [1] [nM] | EC50 (EC50 (nM)) [nM]
22 | Cc1nnc2sc(C(=O)NCc3ccc(-c4cnn(C)c4)cc3)c(N)c2c1C [Example B447] | 64 | > 10000 | –
23 | Cc1nnc2sc(C(=O)NCc3ccc(CN4CCCCC4)cc3)c(N)c2c1C [Example B504] | 68 | 80 | –
24 | Cc1nnc2sc(C(=O)NCc3ccc(Br)cc3)c(N)c2c1C [Example B448, 5-amino-N-(4-bromobenzyl)-3,4-dimethylthieno[2,3-c]pyridazine-6-carboxamide] | 75 | 18 | –
25 | COc1ccc(NC(=O)N2CC(NC(=O)c3sc4nnc(C)c(C)c4c3N)C2)cc1 [Example B371] | 61 | 48 | –
26 | Cc1nnc2sc(C(=O)NC3CCN(C(=O)Cc4cccs4)C3)c(N)c2c1C (stereo not shown) [Example B227] | 76 | 920 | –
27 | Cc1nnc2sc(C(=O)NC3CN(C(=O)Oc4ccc(N=[N+]=[N-])cc4)C3)c(N)c2c1C [Example B421] | 84 | 15 | –
28 | COc1ccc(C#CCNC(=O)c2sc3nnc(C)c(C)c3c2N)cc1 [Example B373] | 66 | 170 | –
29 | Cc1nnc2sc(C(=O)N3CC(F)(c4cccc(F)c4)C3)c(N)c2c1C [Example B293] | 46 | 150 | –
30 | Cc1nnc2sc(C(=O)NC3CCN(c4ccccc4Cl)C3)c(N)c2c1C (stereo not shown) [Example B264] | 71 | 38 | –
31 | Cc1nnc2sc(C(=O)N3CC(C)(F)C3)c(N)c2c1C [Example B302] | 73 | 860 | –
32 | Cc1nnc2sc(C(=O)NC3CCN(c4ccccc4)C3)c(N)c2c1C (stereo not shown) [Example B113] | 66 | 24 | –
33 | Cc1nnc2sc(C(=O)NC3CN(S(=O)(=O)c4cccc(Cl)c4F)C3)c(N)c2c1C [Example B139] | 65 | 54 | –
34 | CC(=O)N1CC2CN(C(=O)c3sc4nnc(C)c(C)c4c3N)CC2C1 (stereo not shown) [Example B278] | 54 | > 10000 | –
35 | Cc1nnc2sc(C(=O)NCc3ccc(S(C)(=O)=O)nc3)c(N)c2c1C [Example B330] | 68 | 150 | –
36 | Cc1nnc2sc(C(=O)NC3CCN(C(=O)c4ccc(F)cc4)C3)c(N)c2c1C (stereo not shown) [Example B219] | 77 | 350 | –
37 | Cc1nnc2sc(C(=O)NC3CN(C(=O)c4ccc5ccccc5c4)C3)c(N)c2c1C [Example B130] | 79 | 97 | –
38 | Cc1nnc2sc(C(=O)N3CC(NS(C)(=O)=O)C3)c(N)c2c1C [Example B172] | 51 | > 10000 | –
39 | Cc1nnc2sc(C(=O)N3CC4CN(C5CCCC5)CC4C3)c(N)c2c1C (stereo not shown) [Example B286] | 19 | 4800 | –
40 | Cc1nnc2sc(C(=O)NCc3ccc(-c4ccc(F)nc4)cc3)c(N)c2c1C [Example B459] | 88 | 15 | –
41 | Cc1nnc2sc(C(=O)NC3CCN(C(=O)CCc4ccccc4)C3)c(N)c2c1C (stereo not shown) [Example B221] | 72 | 1300 | –
42 | COc1ccc([C@H]2C[C@@H]2NC(=O)c2sc3nnc(C)c(C)c3c2N)cc1 (single isomer, unassigned) [Example B31] | 79 | 7.5 | –

Row | SMILES | Emax at 30 µM [%] | EC50 [1] [nM] | EC50 (EC50 (nM)) [nM]
43 | Cc1ccccc1OC(=O)N1CC(NC(=O)c2sc3nnc(C)c(C)c3c2N)C1 [Example B361] | 76 | 11 | –
44 | Cc1nnc2sc(C(=O)NC3CN(S(=O)(=O)c4ccccc4F)C3)c(N)c2c1C [Example B140] | 72 | 43 | –
45 | CCCOC(=O)NC1CCN(C(=O)c2sc3nnc(C)c(C)c3c2N)C1 (stereo not shown) [Example B210] | 58 | > 10000 | –
46 | Cc1nnc2sc(C(=O)N[C@H]3CCN(c4ccccc4)C3)c(N)c2c1C [Example B193] | 63 | 14 | –
47 | Cc1nnc2sc(C(=O)N3CCC(NC(=O)CCc4ccccc4)C3)c(N)c2c1C (stereo not shown) [Example B249] | 48 | > 10000 | –
48 | Cc1nnc2sc(C(=O)NCc3ccc(S(=O)(=O)CF)cc3)c(N)c2c1C [Example B132] | 66 | 19 | –
49 | Cc1nnc2sc(C(=O)NC3CCN(C(=O)CCCc4ccccc4)C3)c(N)c2c1C (stereo not shown) [Example B258] | 64 | 520 | –
50 | Cc1nnc2sc(C(=O)NC3CN(C(=O)c4ccccn4)C3)c(N)c2c1C [Example B126] | 92 | 290 | –
51 | Cc1nnc2sc(C(=O)NCc3ccc(-c4ccccc4O)cc3)c(N)c2c1C [Example B494] | 75 | 190 | –
52 | Cc1nnc2sc(C(=O)NC3CN(S(=O)(=O)c4ccc5ncccc5c4)C3)c(N)c2c1C [Example B141] | 92 | 85 | –
53 | COc1cccc(OC(=O)N2CC(NC(=O)c3sc4nnc(C)c(C)c4c3N)C2)c1 [Example B368] | 69 | 12 | –
54 | CS(=O)(=O)c1ccc(CNC(=O)c2sc3nnc(-c4ccccc4)c(-c4ccccc4)c3c2N)cc1 [Example B41] | 48 | > 10000 | –
55 | CCCCCC(=O)N1CCC(NC(=O)c2sc3nnc(C)c(C)c3c2N)C1 (stereo not shown) [Example B232] | 77 | 530 | –
56 | Cc1nnc2sc(C(=O)N3CC(O)(c4ccccc4)C3)c(N)c2c1C [Example B179] | 33 | 920 | –
57 | Cc1nnc2sc(C(=O)NCc3ccc([S+](C)[O-])cc3)c(N)c2c1C (stereo not shown) [Example B34] | 82 | – | 140
58 | Cc1nnc2sc(C(=O)N3CC(F)(c4ccc(S(=O)(=O)C(F)F)cc4)C3)c(N)c2c1C [Example B377] | 50 | 72 | –
59 | Cc1nnc2sc(C(=O)N3CC(F)(c4cccc(N=[N+]=[N-])c4)C3)c(N)c2c1C [Example B401] | 54 | 3100 | –
60 | Cc1nnc2sc(C(=O)NC3CCN(C(=O)N4CCOCC4)C3)c(N)c2c1C (stereo not shown) [Example B208] | 73 | 2100 | –
61 | COc1cncc(NC(=O)c2sc3nnc(C)c(C)c3c2N)c1 [Example B72] | 30 | 380 | –
62 | Cc1nnc2sc(C(=O)NC3CN(S(=O)(=O)CC(F)(F)F)C3)c(N)c2c1C [Example B119] | 68 | 82 | –
